Assay results: patent US9242997B2, “Tricyclic pyrazole sulphonamide compunds and methods of making and using same” (Zafgen, Inc., priority 2011, dated 2016)

molecular target: T1, Human recombinant MetAP2 (Homo sapiens, UniProt P50579); assay: recombinant human MetAP2 inhibition assay (MAS substrate, amino acid oxidase/Amplex red fluorescence); format: biochemical; details: manganese enzyme, 30 minutes at 25° C., pH 7.5, 0.75 mM MAS substrate, 1% DMSO
T1 construct: made in house; host or cells: Sf9 insect cells
Description: Compounds are tested for their capacity to inhibit recombinant human MetAP2 activity using the following assay.
Human recombinant MetAP2 expressed in Sf9 cells followed by affinity purification and EDTA treatment to remove endogenous active site cation was dialysed against MnCl2 to produce the manganese enzyme used in the assay. The assay was carried out for 30 minutes at 25° C. in 50 mM HEPES buffer containing 100 mM NaCl, pH 7.5 the presence of 0.75 mM Methionine-Alanine-Serine (MAS) substrate and 50 μg/ml amino acid oxidase using a dilution of purified MetAP2 giving>3-fold signal: noise. Cleavage of the substrate by MetAP2 and oxidation of free methionine by amino acid oxidase was detected and quantified using fluorescence generated by Amplex red (10-acetyl-3,7-dihydroxyphenoxazine) in combination with horseradish peroxidase which detects H2O2 released during the oxidation step. The fluorescent signal was detected using a multiwell fluorimeter. Compounds were diluted in DMSO prior to addition to assay buffer, the final DMSO concentration in the assay being 1%.
The IC50 is defined as the concentration at which a given compound achieves 50% inhibition of control. IC50 values are calculated using the XLfit software package (version 2.0.5).

T1 sequence (P50579 whole entry): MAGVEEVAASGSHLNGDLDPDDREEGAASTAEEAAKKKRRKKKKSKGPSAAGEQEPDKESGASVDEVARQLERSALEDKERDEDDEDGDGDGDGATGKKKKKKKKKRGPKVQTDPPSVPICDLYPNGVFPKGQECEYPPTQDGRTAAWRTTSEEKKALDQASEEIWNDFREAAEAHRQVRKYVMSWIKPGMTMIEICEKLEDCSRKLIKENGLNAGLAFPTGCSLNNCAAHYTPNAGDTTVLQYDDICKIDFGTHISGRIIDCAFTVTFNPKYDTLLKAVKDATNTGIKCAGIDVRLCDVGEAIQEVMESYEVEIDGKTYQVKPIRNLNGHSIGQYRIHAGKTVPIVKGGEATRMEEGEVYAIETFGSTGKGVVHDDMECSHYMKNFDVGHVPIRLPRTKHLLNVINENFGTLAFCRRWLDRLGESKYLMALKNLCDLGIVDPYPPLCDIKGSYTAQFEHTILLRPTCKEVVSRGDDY

| IC50 [nM] | SMILES |
| --- | --- |
| < 50 | CCN(CC)C/C=C\c1cc(F)ccc1S(=O)(=O)Nc1ccc2c(c1C(=O)O)OCc1nccn1-2 [Example 4, 7-[2-((Z)-3-Diethylaminoprop-1-enyl)-4-fluorobenzenesulfonylamino]-4H-5-oxa-3,9b-diazacyclopenta[a]naphthalene-6-carboxylic acid] |
| 50 to 500 | CCN(CC)C/C=C\c1cc(F)ccc1S(=O)(=O)Nc1ccc2c(c1C(=O)O)CCn1nccc1-2 [Example 3, 8-[2-((Z)-3-Diethylaminoprop-1-enyl)-4-fluorobenzenesulfonylamino]-5,6-dihydropyrazolo[5,1-a]isoquinoline-7-carboxylic acid] |
| < 50 | CCN(CC)C/C=C\c1cc(F)ccc1S(=O)(=O)Nc1ccc2c(ccn3nccc23)c1C(=O)O [Example 1, 8-[2-((Z)-3-Diethylaminoprop-1-enyl)-4-fluorobenzenesulfonylamino]-pyrazolo[5,1-a]isoquinoline-7-carboxylic acid] |
| < 50 | CCN(CC)C/C=C\c1cc(F)ccc1S(=O)(=O)Nc1ccc2c(c1C(=O)O)OCc1cccn1-2 [Example 2, 7-[2-((Z)-3-Diethylaminoprop-1-enyl)-4-fluorobenzenesulfonylamino]-4H-benzo[b]pyrrolo[1,2-d][1,4]oxazine-6-carboxylic acid] |
